As a reminder, the IC50 is the concentration needed to halve the response being measured.

A value given as a limit tells only on which side of the number the result lay.

One data set concerns IL-1β. The data set is described as follows: THP-1 AlphaLISA IL-1β cytokine assay. It is filed as cell-based. As to conditions: Homo sapiens, THP-1, differentiated THP-1 cells, LPS 24 hr then Nigericin 1 hour. The procedure: (§1) Measuring Inhibitory Effects on IL-1V and IL-6 Cytokine Output from THP-1s
(§2) The cytokine inhibition profiles of compounds of formula (I) were determined in a differentiated THP-1 cell assay. All assays were performed in RPMI-1640 growth medium (Gibco), supplemented with 10% fetal bovine serum (FBS; Gibco), 1% penicillin-streptomycin and 1% sodium pyruvate unless specified otherwise. The IL-1β and IL-6 cytokine inhibition assays were run in a background of differentiated THP-1 cells as described below. All reagents described were from Sigma-Aldrich unless specified otherwise. Compounds were prepared as 10 mM DMSO stocks.
(§3) THP-1 cells were expanded as a suspension up to 80% confluence in appropriate growth medium. Cells were harvested, suspended, and treated with an appropriate concentration of phorbol 12-myristate 13-acetate (PMA) over a 72 hr period (37° C./5% CO2).
(§4) Following 72 hrs of THP-1 cell incubation, cellular medium was removed and replaced with fresh growth media containing 1% of FBS. Working concentrations of compounds were prepared separately in 10% FBS treated growth medium and pre-incubated with the cells for 30 minutes (37° C./5% CO2). Following the 30 minute compound pre-incubation, THP-1s were treated with an appropriate concentration of LPS and the THP-1s were subsequently incubated for a 24 hr period (37° C./5% CO2). An appropriate final concentration of Nigericin was then dispensed into the THP-1 plates and incubated for 1 hour (37° C./5% CO2) before THP-1 supernatants were harvested and collected in separate polypropylene 96-well holding plates.
(§5) Reagents from each of the IL-1β and IL-6 commercial kits (Perkin Elmer) were prepared and run according to the manufacturer's instructions. Subsequently, fluorescence signal detection in a microplate reader was measured (EnVision® Multilabel Reader, Perkin Elmer).
(§6) Percentage inhibition was calculated per cytokine by normalising the sample data to the high and low controls used within each plate (+/−LPS respectively). Percentage inhibition was then plotted against compound concentration and the 50% inhibitory concentration ([…]) was determined from the resultant concentration-response curve.
In general terms: In Alpha technology, singlet oxygen from a donor bead excites a nearby acceptor bead.

The subject of a further data set is IL-6. The data set is described as follows: THP-1 AlphaLISA IL-6 cytokine assay. Type of data set: cell-based. The following applies: Homo sapiens, THP-1, differentiated THP-1 cells, LPS 24 hr then Nigericin 1 hour. The method, then: as §1, §2, §3, §4, §5, §6
The nature of data set [1]: Hepatocyte stability assay (human). Type of data set: in vitro ADME. As to conditions: human, cryopreserved hepatocytes, 10 μM compound, 60 min, read-out: T½. An excerpt:
(§7) Defrosted cryo-preserved hepatocytes (viability>70%) were used to determine the metabolic stability of a compound via calculation of intrinsic clearance (Clint; a measure of the removal of a compound from the liver in the absence of blood flow and cell binding). Clearance data are particularly important for in vitro work as they can be used in combination with in vivo data to predict the half-life and oral bioavailability of a drug.
(§8) The metabolic stability in hepatocytes assay involved a time-dependent reaction using both positive and negative controls. The cells must be pre-incubated at 37° C. then spiked with test compound (and positive control); samples taken at pre-determined time intervals were analysed to monitor the change in concentration of the initial drug compound over 60 minutes. A buffer incubation reaction (with no hepatocytes present) acted as a negative control and two cocktail solutions, containing compounds with known high and low clearance values (verapamil/7-hydroxycoumarin and propranolol/diltiazem), acted as positive controls. • 1. The assay was run with a cell concentration of 0.5×10^6 cells/mL in Leibovitz buffer. • 2. All compounds and controls were run in duplicate. • 3. Compound concentration was 10 μM. • 4. All compounds and controls were incubated with both cells and buffer to show turnover is due to hepatic metabolism. • 5. All wells on the incubation plate had 326.7 μL of either cells or buffer added. • 6. Prior to assay, cell and buffer-only incubation plates were preincubated for 10 mins at 37° C. • 7. The assay was initiated by adding compounds, 3.3 μL of 1 mM in 10% DMSO-90% Buffer; final DMSO concentration is 0.1%. • 8. Samples were taken at regular timepoints (0, 5, 10, 20, 40, 60 min) until 60 mins. • 9. Sample volume was 40 μL and added to 160 μL of crash solvent (acetonitrile with internal standard) and stored on ice. • 10. At the end of the assay, the crash plates were centrifuged at 3500 rpm for 20 mins at 4° C. • 11. 80 μL of clear supernatant was removed and mixed with 80 μL of deionised water before being analysed by LC-MS/MS.
(§9) Raw LC-MS/MS data were exported to, and analysed in, Microsoft Excel for determination of intrinsic clearance. The percentage remaining of a compound was monitored using the peak area of the initial concentration as 100%. Intrinsic clearance and half-life values were calculated using a graph of the natural log of percentage remaining versus the time of reaction in minutes. Half-life (min) and intrinsic clearance (Clint in μL min^−1 10^−6 cells) values were calculated using the gradient of the graph (the elimination rate constant, k) and Equations 1 and 2.

The subject of data set [2] is hepatocytes. The data set is described as follows: Hepatocyte stability assay (human). It is filed as in vitro ADME. The following applies: 10 μM compound, 60 min.
Text: as §7, §8, §9

Data set [3] is described as follows: Hepatocyte stability assay (mouse). Type of data set: in vitro ADME. As to conditions: mouse, cryopreserved hepatocytes, 10 μM compound, 60 min, read-out: T½.
Text: as §7, §8, §9

Data set [4] relates to hepatocytes. The data set is described as follows: Hepatocyte stability assay (mouse). It is filed as in vitro ADME. As to conditions: 10 μM compound, 60 min.
Text: as §7, §8, §9

On to `C=C(CC(=O)OC1(c2ccc(C(F)(F)F)cc2)CC(F)(F)C1)C(=O)O` [Example 29, 4-(3,3-difluoro-1-(4-(trifluoromethyl)phenyl)cyclobutoxy)-2-methylene-4-oxobutanoic acid], for which the IC50 with IL-1β was 1.3 µM; in the data set with IL-6, over 100 µM. Also, the half-life at 10 μM amounted to 2.38 h in data set [1] and 1.32 h in data set [3]. The Clint was found to be 11 μL min^−1 10^−6 cells in the data set with hepatocytes [2] and 20 μL min^−1 10^−6 cells with hepatocytes [4].
In the case of `C=C(C(=O)O)C(C)(C)C(=O)OC1(c2ccc(C(F)(F)F)cc2)CCC1` [Example 30, 3,3-dimethyl-2-methylene-4-oxo-4-(1-(4-(trifluoromethyl)phenyl)cyclobutoxy) butanoic acid], the IC50 with IL-1β was 1.2 µM; in the data set with IL-6, over 100 µM. In addition, the half-life at 10 μM is 0.617 h in data set [1] and 0.25 h in data set [3]. Further, the Clint with hepatocytes [2] was determined as 41 μL min^−1 10^−6 cells; with hepatocytes [4], 104 μL min^−1 10^−6 cells.
On to `C=C(CC(=O)OC1(c2ccc(C(F)(F)C(F)(F)F)cc2)CCC1)C(=O)O` [Example 31, 2-methylene-4-oxo-4-(1-(4-(perfluoroethyl)phenyl)cyclobutoxy)butanoic acid], for which the figures for the IC50 in the data set with IL-1β and with IL-6 were 3.4 µM and over 100 µM, respectively. Further, the half-life at 10 μM in data set [1] amounted to 2.33 h; in data set [3] it was 0.7 h. Moreover, the Clint with hepatocytes [2] is on record as 11 μL min^−1 10^−6 cells; in the data set with hepatocytes [4], 38 μL min^−1 10^−6 cells.
For the compound `C=C(CC(=O)OC1(c2ccc(C(F)(F)F)s2)CCC1)C(=O)O` [Example 32, 2-methylene-4-oxo-4-(1-(5-(trifluoromethyl)thiophen-2-yl)cyclobutoxy)butanoic acid], the IC50 in the data set with IL-1β is 5.2 µM; in the data set on IL-6, over 100 µM. Besides, the half-life at 10 μM was 1.53 h in data set [1] and 1.27 h in data set [3]. Also, the Clint in the data set on hepatocytes [2] came out at 17 μL min^−1 10^−6 cells; with hepatocytes [4] it was 21 μL min^−1 10^−6 cells.
For the compound `C=C(CC(=O)O[C@H](c1ccc(C(F)(F)F)cc1)C(F)(F)F)C(=O)O` [Example 34, (R)-2-methylene-4-oxo-4-(2,2,2-trifluoro-1-(4-(trifluoromethyl)phenyl)ethoxy)butanoic acid], the IC50 in the data set with IL-1β is 12.2 µM; with IL-6, over 31.6 µM. Also, the half-life at 10 μM in data set [1] was 0.867 h; in data set [3], 0.433 h. The Clint in the data set with hepatocytes [2] was found to be 26 μL min^−1 10^−6 cells; with hepatocytes [4] it was 48 μL min^−1 10^−6 cells.
On to `C=C(CC(=O)OC1(c2ccc(C(F)(F)F)cc2)CC2(CCC2)C1)C(=O)O` [Example 35, 2-methylene-4-oxo-4-((2-(4-(trifluoromethyl)phenyl)spiro[3.3]heptan-2-yl)oxy)butanoic acid], for which the IC50 was 8.8 µM with IL-1β and over 31.6 µM with IL-6. Also, the half-life at 10 μM in data set [1] is 1.43 h; in data set [3] it was 0.5 h. Further, the figures for the Clint in the data set on hepatocytes [2] and in the data set on hepatocytes [4] were 14 μL min^−1 10^−6 cells and 73 μL min^−1 10^−6 cells, respectively.
Regarding `C=C(C(=O)O)C1(C(=O)OC2(c3ccc(C(F)(F)F)cc3)CCC2)CC1` [Example 39, 2-(1-((1-(4-(trifluoromethyl)phenyl)cyclobutoxy)carbonyl)cyclopropyl)acrylic acid], the IC50 in the data set with IL-1β is 1.5 µM; in the data set with IL-6, over 100 µM. The half-life at 10 μM in data set [1] was determined as 1.08 h; in data set [3] it was 0.8 h. The Clint in the data set on hepatocytes [2] worked out at 18 μL min^−1 10^−6 cells; in the data set on hepatocytes [4] it was 45 μL min^−1 10^−6 cells.
On to `C=C(CC(=O)O[C@]1(c2ccc(C(F)(F)F)cc2)C[C@H](C#N)C1)C(=O)O` [Example 41, 4-((cis)-3-cyano-1-(4-(trifluoromethyl)phenyl)cyclobutoxy)-2-methylene-4-oxobutanoic acid], for which the IC50 with IL-1β was 2.1 µM; in the data set on IL-6, over 31.6 µM. For the same compound, the half-life at 10 μM in data set [1] is over 7.67 h; in data set [3], 4.87 h. Also, the Clint is recorded as under 3 μL min^−1 10^−6 cells in the data set on hepatocytes [2] and 8 μL min^−1 10^−6 cells in the data set on hepatocytes [4].
Turning to `C=C(CC(=O)O[C@]1(c2ccc(C(F)(F)F)cc2)C[C@H](OC)C1)C(=O)O` [Example 42, 4-((cis)-3-methoxy-1-(4-(trifluoromethyl)phenyl)cyclobutoxy)-2-methylene-4-oxobutanoic acid], the IC50 with IL-1β was 17.1 µM; in the data set on IL-6, over 31.6 µM. In addition, the half-life at 10 μM in data set [1] is 7.47 h; in data set [3], over 7.67 h. Further, the Clint in the data set with hepatocytes [2] is listed as 4 μL min^−1 10^−6 cells; in the data set with hepatocytes [4], under 3 μL min^−1 10^−6 cells.
`C=C(CC(=O)O[C@]1(c2ccc(C(F)(F)F)cc2)C[C@H](C)C1)C(=O)O` [Example 45, (cis)-4-(3-methyl-1-(4-(trifluoromethyl)phenyl)cyclobutoxy)-2-methylene-4-oxobutanoic acid]: the IC50 is 3.4 µM in the data set on IL-1β and over 100 µM with IL-6. The results for the half-life at 10 μM in data set [1] and in data set [3] were over 7.67 h and 2.6 h, respectively. Also, the values for the Clint in the data set on hepatocytes [2] and in the data set with hepatocytes [4] were under 3 μL min^−1 10^−6 cells and 8 μL min^−1 10^−6 cells, respectively.
Take `C=C(CC(=O)OC1(c2ccc(C(F)(F)F)cn2)COC1)C(=O)O` [Example 46, 2-methylene-4-oxo-4-(3-(5-(trifluoromethyl)pyridin-2-yl)oxetan-3-yloxy)butanoic acid]: the IC50 was 4.1 µM in the data set on IL-1β and over 31.6 µM in the data set with IL-6. For the same compound, the half-life at 10 μM in data set [1] and in data set [3] was over 7.67 h each time. The Clint in the data set on hepatocytes [2] and with hepatocytes [4] was under 3 μL min^−1 10^−6 cells in each case.
As for `C=C(CC(=O)OC1(c2ccc(C(F)(F)F)cc2)CCOCC1)C(=O)O` [Example 47, 2-methylene-4-oxo-4-((4-(4-(trifluoromethyl)phenyl)tetrahydro-2H-pyran-4-yl)oxy)butanoic acid], the IC50 is 6.7 µM in the data set on IL-1β and over 100 µM in the data set on IL-6. Moreover, the half-life at 10 μM in data set [1] and in data set [3] was over 7.67 h throughout. Besides, the Clint with hepatocytes [2] and in the data set with hepatocytes [4] was under 3 μL min^−1 10^−6 cells each time.
In the case of `C=C(CC(=O)OC1(c2ccc(C(F)(F)F)cc2)CS(=O)(=O)C1)C(=O)O` [Example 49, 4-((1,1-dioxido-3-(4-(trifluoromethyl)phenyl)thietan-3-yl)oxy)-2-methylene-4-oxobutanoic acid], the half-maximal inhibitory concentration (IC50) is 5 µM in the data set with IL-1β and over 100 µM in the data set with IL-6. Further, the half-life at 10 μM stood at 0.25 h in data set [1] and 0.317 h in data set [3]. Moreover, the Clint with hepatocytes [2] amounted to 91 μL min^−1 10^−6 cells; in the data set with hepatocytes [4], 68 μL min^−1 10^−6 cells.

The values are drawn from patent US20230399287A1, “NOVEL COMPOUNDS” (Sitryx Therapeutics Limited, priority 2020, published 2023).
